Peptide text beside a SMILES is read from it. * marks the point of attachment. Cbz = O=C(OCc1ccccc1)*
Assays:
[1] = target: T1, gp130 receptor (Homo sapiens, UniProt P40189); assay: p-gp130 (p-Tyr) ELISA, HTS validation and dose response in U87-MG cells; format: cell-based; settings: for p-gp130 (p-Tyr) dose response activity: dose response of validated hits, FIG. 4; for activation of gp130 receptor / increase of p-gp130: validation testing, truncated humanin peptides
T1 construct: express more than 10 times more endogenous gp130; endogenous in cells; host or cells: U87-MG
T1 sequence (P40189 23-918): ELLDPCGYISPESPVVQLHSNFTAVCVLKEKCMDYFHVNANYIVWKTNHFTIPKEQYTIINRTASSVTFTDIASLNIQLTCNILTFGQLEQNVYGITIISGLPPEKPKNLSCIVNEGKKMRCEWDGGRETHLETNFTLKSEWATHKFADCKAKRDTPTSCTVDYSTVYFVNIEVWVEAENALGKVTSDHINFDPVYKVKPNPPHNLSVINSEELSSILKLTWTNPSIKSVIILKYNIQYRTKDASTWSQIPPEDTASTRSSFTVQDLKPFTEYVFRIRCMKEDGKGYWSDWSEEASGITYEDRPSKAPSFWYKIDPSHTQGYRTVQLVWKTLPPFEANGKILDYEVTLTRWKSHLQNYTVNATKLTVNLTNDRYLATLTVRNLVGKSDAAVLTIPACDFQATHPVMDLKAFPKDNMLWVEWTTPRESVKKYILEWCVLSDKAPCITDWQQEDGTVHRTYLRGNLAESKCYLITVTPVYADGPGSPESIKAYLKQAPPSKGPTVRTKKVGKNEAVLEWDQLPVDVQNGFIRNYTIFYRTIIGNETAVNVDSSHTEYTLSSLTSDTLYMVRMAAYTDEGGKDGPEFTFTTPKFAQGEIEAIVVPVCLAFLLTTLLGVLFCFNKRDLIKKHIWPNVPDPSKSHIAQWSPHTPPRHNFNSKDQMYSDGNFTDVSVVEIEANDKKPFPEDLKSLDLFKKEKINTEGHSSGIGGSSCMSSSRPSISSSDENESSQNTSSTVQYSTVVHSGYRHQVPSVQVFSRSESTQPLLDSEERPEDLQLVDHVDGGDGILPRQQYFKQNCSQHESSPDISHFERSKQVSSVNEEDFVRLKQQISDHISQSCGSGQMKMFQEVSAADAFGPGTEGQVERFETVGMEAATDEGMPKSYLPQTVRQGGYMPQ
Excerpt: (§1) An ELISA assay for the evaluation of the p-gp130 levels was developed. This was a commercial ELISA—DuoSet ELISA from R&D systems (cat #DYC3407-2) and detected the tyrosine phosphorylation of gp130. […] In addition, a commercially available p-AKT (1,2,3) AlphaLISA kit was used (PE cat #ALSU-PAKT-B-HV) for the HTS assay.
(§2) Small molecules that act as HN mimetics represent a new class of AD therapeutics. Through screening, validated hits that increase both p-gp-130 and p-Akt levels were identified. Human glioblastoma cells were used, U87-MG. Several hits that enhance p-gp 130 were identified as well as several compounds that can increase p-AKT (FIG. 3).
(§3) Into a 96 well plate was added 99 μL of warm DMEM/F12 without FBS, then 1 uL of compounds at 1 mM were loaded into the96 well plate. These generated the compounds at 2×. Into a 96 well plate was added IL6/IL6R solution to achieve 6.6×10−4 mg/mL and 3.3×10−4 mg/mL respectively, this is 2× concentration. For this, primary EL6 stock (0.1 mg/mL) was diluted150-fold and IL6R stock (0.1 mg/mL) 300-fold to treat cells with final concentration of 6.6×10−4 mg/mL and 3.3×10−4 mg/mL respectively. 10 ml of Sample Diluent Concentrate 2 (2X)(Part #895891/DYC002)+10 ml ddH2O+200 ul of 100 mM activated Na3VO4 (aliquots at −20C)+20 ul of 10 mg/ml aprotinin (stock at 4C)+20 ul of 10 mg/ml leupeptin (aliquots at −20C)+200 ul PIC-protected from light. Lysis buffer containing 1% NP-40 Alternative, 20 mM Tris (pH 8.0), 137 mM NaCl, 10% glycerol, 2 mM EDTA, 1 mM activated sodium orthovanadate, 10 μg/mL Aprotinin, 10 μg/mL Leupeptin. Placed on ice. Removed the media from the cell plate and add 50 μL of DMEM/F12 without FBS. Then, added 50 μL of the compounds or positive control IL6/IL6R at 2× into the cell plate using the multichannel (FIG. 7). Allowed the treatment to take place for 10 minutes in the incubator at 37° C. and 5% CO2. Cells were lysed with 130 μL of ice-cold lysis buffer. Placed cells on ice for 15 min, then in the −80° C. overnight. Next, we prepared the ELISA plate by warming coating buffer to RT. 12 strips were coated with capture antibody. For this: 121 μL of 180 μg/mL of capture antibody (R&D DYC3407-2) was added into 21.48 mL of coating buffer. 100 μL of this solution was added to each well, covered with a lead and incubated at RT overnight and then conducted the ELISA assay using the manufacture outlined protocol. The cell lysate from the HTS was prepared using the AlphaLISA buffer to measure levels of p-AKT after compound treatment.

[2] = system: p-gp130 and p-Akt; assay: HN mimetic activity (p-gp130 and p-Akt); format: cell-based, human
Excerpt: as §1, §2
as §3, with “For this: 121 μL of 180 μg/mL of capture antibody (R&D DYC3407-2) was added into 21.48 mL of coating buffer. 100 μL of this solution was added to each well, covered with a lead and incubated at RT overnight and then conducted the ELISA assay using the manufacture outlined protocol. The cell lysate from the HTS was prepared using the AlphaLISA buffer to measure levels of p-AKT after compound treatment.” left out

[3] = system: p-AKT; assay: p-AKT AlphaLISA in U87-MG cells; format: cell-based, human; design: dose or concentration left out as unconfirmed; settings: FIG. 2D
Excerpt: as §1, §2
Into a 96 well plate was added 99 μL of warm DMEM/F12 without FBS, then 1 uL of compounds at 1 mM were loaded into the96 well plate. These generated the compounds at 2×. Into a 96 well plate was added IL6/IL6R solution to achieve 6.6×10−4 mg/mL and 3.3×10−4 mg/mL respectively, this is 2× concentration. For this, primary EL6 stock (0.1 mg/mL) was diluted150-fold and IL6R stock (0.1 mg/mL) 300-fold to treat cells with final concentration of 6.6×10−4 mg/mL and 3.3×10−4 mg/mL respectively. 10 ml of Sample Diluent Concentrate 2 (2X)(Part #895891/DYC002)+10 ml ddH2O+200 ul of 100 mM activated Na3VO4 (aliquots at −20C)+20 ul of 10 mg/ml aprotinin (stock at 4C)+20 ul of 10 mg/ml leupeptin (aliquots at −20C)+200 ul PIC-protected from light. […]

[4] = system: p-gp130; assay: p-gp130 AlphaLISA in U87-MG cells; format: cell-based, human; settings: 30 μM for 3 hours, FIG. 2D
Procedure: FIG. 2. Development of p-gp 130 and gp130 AlphaLISA assays (A) Evaluation of p-gp 130 and gp 130 levels in U87-MG and SH-SY5Y cells after treatment with compound 2 by immunoblotting. (B) Principle of AlphaLISA assay. (C) Data of developed gp-130 AlphaLISA assay. Analyte is recombinant gp130 (EC domain).
Eight different antibodies (more than 20 combinations) were tested in a course of p-gp130 and gp130 AlphaLISA development. The principle of the AlphaLISA assay is depicted in FIG. 2B. […] Lysate buffer composition and treatment conditions have been optimized.

Compound | p-gp130 (p-Tyr) dose response activity [1] | HN mimetic activity [2] | further results
CCC(=O)Nc1ccc2nc(C)n(-c3cccc(Cl)c3)c(=O)c2c1 [DDL-813] | most potent showing submicromolar activity |  | 
CC[C@H](C)[C@H](NC(=O)[C@H](CCC(=O)O)NC(=O)CNC(=O)[C@@H](N)[C@@H](C)O)C(=O)O [DDL-842, NH2-Thr-Gly-Glu-Ile-COOH] (H-TGEI-OH) |  | weak HN mimetic activity | 
C#CCSC[C@H](N)C(=O)O [S-propargyl-cyctein (SPRC), S-propargyl-cyctein] |  |  | p-AKT AlphaLISA signal [3]: significant increaste; p-gp130 AlphaLISA signal [4]: significant increaste
Cbz-Thr-Ser-NH2 [DDL-841] |  | increased HN mimetic activity | 
H-TGEINLPVK-OH [DDL-815, NH2-Thr-Gly-Glu-Ile-Asn-Leu-Pro-Val-Lys-COOH] |  | weaker HN mimetic activity through lower p-gp130 and p-Akt | 
H-TSEINLPVK-OH [DDL-814, NH2-Thr-Ser-Glu-Ile-Asn-Leu-Pro-Val-Lys-COOH] | good activity |  | activation of gp130 receptor / increase of p-gp130 [1]: activate the gp130 receptor; activation of gp130 receptor / increase of p-gp130 ([1]; listed as P3): increased p-gp-130

Reference: patent US20260317384A1, “SMALL MOLECULE HUMANIN MIMETICS” (The Regents of the University Of California, priority 2023, published 2026)
